Assay results as given in patent US20120283303A1, “USE OF N-AMINOIMIDAZOLE CYTOPROTECTIVE COMPOUNDS FOR TREATING CELL DEATH AND/OR GSK-3 MEDIATED DISEASES” (K.U.LEUVEN RESEARCH AND DEVELOPMENT, priority 2006, published 2012).

What was measured:
[1] = system: Peripheral blood mononuclear cells (PBMCs); assay: PBMC survival (viable cell count, trypan blue exclusion); assay type: cell-based, human
Method: Peripheral blood mononuclear cells (PBMCs) from healthy donors were isolated by density centrifugation (Lymphoprep; Nycomed Pharma, AS Diagnostics, Oslo, Norway). For the “non-stimulated” conditions (NS) the cells were cultivated at a density of 1,750,000 cells per ml in RPMI-1640 supplemented with 2 mM L-glutamine, 15% FCS and 0.1% NaHCO3 for 3 days. […] At day 0 of the experiment, the NS and activated cells (PHA-stimulated blasts) were washed with PBS and were pelleted by centrifugation. […] The number of viable cells was counted based on the trypan blue exclusion method. The evolution of the number of cells was followed over a period of approximately 2 weeks.

[2] = Diabetic mouse glucose tolerance test; assay type: in vivo, mice; details: subcutaneously, 30 mg/kg
Description: NR818 is formulated and tested in the diabetic mouse glucose tolerance test as described in example 269 of U.S. Pat. No. 6,489,344.

CDK5/p25 = target: T1, CDK5/p25 (Homo sapiens, UniProt Q00535); assay: Radiometric kinase activity assay; assay type: biochemical; details: 5 μg/ml NR-818, 10 μM ATP
T1 construct: purchased Upstate Biotechnology
Method: (§1) GSK-3 were assayed for their ability to phosphorylate the appropriate peptide/protein substrate in the presence of 5 μg/ml NR-818 and 10 μM ATP. Using the direct radiometric approach, kinase activities were determined and expressed as % activity compared to the untreated control (Upstate Biotechnology, Lake Placid, N.Y.). Activities are given as the mean of duplicate determinations relative to control incubations in which the inhibitor was substituted with DMSO. In the following table 1 providing results for NR818, the following abbreviations are used: • CDK, cyclin-dependent kinase; • CK, casein kinase; • eEF-2K, eukaryotic elongation factor-2 kinase; • JNK, c-Jun N-terminal kinase; • MAPK, mitogen-activated protein kinase; • PKC, protein kinase C; and • PI 3-kinase, phosphatidylinositol 3-kinase.

PI 3-kinaseβ = target: T2, PI 3-kinaseβ (Homo sapiens, UniProt P42338); assay: Radiometric kinase activity assay; assay type: biochemical; details: 5 μg/ml NR-818, 10 μM ATP
T2 construct: purchased Upstate Biotechnology
Method: as §1

CDK6/cyclinD3 = target: T3, CDK6/cyclinD3 (Homo sapiens, UniProt Q00534); assay: Radiometric kinase activity assay; assay type: biochemical; details: 5 μg/ml NR-818, 10 μM ATP
T3 construct: purchased Upstate Biotechnology
Method: as §1

CDK5/p35 = target: T4, CDK5/p35 (Homo sapiens, UniProt Q00535); assay: Radiometric kinase activity assay; assay type: biochemical; details: 5 μg/ml NR-818, 10 μM ATP
T4 construct: purchased Upstate Biotechnology
Method: as §1

MAPK1 = target: T5, MAPK1 (Homo sapiens, UniProt P27361); assay: Radiometric kinase activity assay; assay type: biochemical; details: 5 μg/ml NR-818, 10 μM ATP
T5 construct: purchased Upstate Biotechnology
Method: as §1

CK2 = target: T6, CK2 (Homo sapiens, UniProt P68400); assay: Radiometric kinase activity assay; assay type: biochemical; details: 5 μg/ml NR-818, 10 μM ATP
T6 construct: purchased Upstate Biotechnology
Method: as §1

eEF-2K = target: T7, eEF-2K (Homo sapiens, UniProt O00418); assay: Radiometric kinase activity assay; assay type: biochemical; details: 5 μg/ml NR-818, 10 μM ATP
T7 construct: purchased Upstate Biotechnology
Method: as §1

JNK1α1 = target: T8, JNK1α1 (Homo sapiens, UniProt P45983); assay: Radiometric kinase activity assay; assay type: biochemical; details: 5 μg/ml NR-818, 10 μM ATP
T8 construct: purchased Upstate Biotechnology
Method: as §1

MAPK2 = target: T9, MAPK2 (Homo sapiens, UniProt P28482); assay: Radiometric kinase activity assay; assay type: biochemical; details: 5 μg/ml NR-818, 10 μM ATP
T9 construct: purchased Upstate Biotechnology
Method: as §1

CK1 = assay: Radiometric kinase activity assay; assay type: biochemical; details: 5 μg/ml NR-818, 10 μM ATP
Method: as §1

PI 3-kinaseγ = target: T10, PI 3-kinaseγ (Homo sapiens, UniProt P48736); assay: Radiometric kinase activity assay; assay type: biochemical; details: 5 μg/ml NR-818, 10 μM ATP
T10 construct: purchased Upstate Biotechnology
Method: as §1

CDK7/cyclinH = target: T11, CDK7/cyclinH (Homo sapiens, UniProt P50613); assay: Radiometric kinase activity assay; assay type: biochemical; details: 5 μg/ml NR-818, 10 μM ATP
T11 construct: purchased Upstate Biotechnology
Method: as §1

CDK2/cyclinA = target: T12, CDK2/cyclinA (Homo sapiens, UniProt P24941); assay: Radiometric kinase activity assay; assay type: biochemical; details: 5 μg/ml NR-818, 10 μM ATP
T12 construct: purchased Upstate Biotechnology
Method: as §1

CDK9/cyclinT1 = target: T13, CDK9/cyclinT1 (Homo sapiens, UniProt P50750); assay: Radiometric kinase activity assay; assay type: biochemical; details: 5 μg/ml NR-818, 10 μM ATP
T13 construct: purchased Upstate Biotechnology
Method: as §1

CDK3/cyclinE = target: T14, CDK3/cyclinE (Homo sapiens, UniProt Q00526); assay: Radiometric kinase activity assay; assay type: biochemical; details: 5 μg/ml NR-818, 10 μM ATP
T14 construct: purchased Upstate Biotechnology
Method: as §1

PI 3-kinaseδ = target: T15, PI 3-kinaseδ (Homo sapiens, UniProt O00329); assay: Radiometric kinase activity assay; assay type: biochemical; details: 5 μg/ml NR-818, 10 μM ATP
T15 construct: purchased Upstate Biotechnology, Lake Placid, N.Y
Method: as §1

CDK2/cyclinE = target: T16, CDK2/cyclinE (Homo sapiens, UniProt P24941); assay: Radiometric kinase activity assay; assay type: biochemical; details: 5 μg/ml NR-818, 10 μM ATP
T16 construct: purchased Upstate Biotechnology
Method: as §1

JNK2α2 = target: T17, JNK2α2 (Homo sapiens, UniProt P45984); assay: Radiometric kinase activity assay; assay type: biochemical; details: 5 μg/ml NR-818, 10 μM ATP
T17 construct: purchased Upstate Biotechnology
Method: as §1

CDK1/cyclinB = target: T18, CDK1/cyclinB (Homo sapiens, UniProt P06493); assay: Radiometric kinase activity assay; assay type: biochemical; details: 5 μg/ml NR-818, 10 μM ATP
T18 construct: purchased Upstate Biotechnology
Method: as §1

PKCζ = target: T19, PKCζ (Homo sapiens, UniProt Q05513); assay: Radiometric kinase activity assay; assay type: biochemical; details: 5 μg/ml NR-818, 10 μM ATP
T19 construct: purchased Upstate Biotechnology
Method: as §1

GSK-3α = target: T20, GSK-3α (Homo sapiens, UniProt P49840); assay: Radiometric kinase activity assay; assay type: biochemical; details: GSK-3α; 5 μg/ml NR-818, 10 μM ATP
T20 construct: purchased Upstate Biotechnology
Method: as §1
(§2) By using this experimental set-up, the inhibiting activity of NR953 on GSK-3 is also tested.

GSK-3β = target: T21, GSK-3β (Homo sapiens, UniProt P49841); assay: Radiometric kinase activity assay; assay type: biochemical; details: GSK-3β; 5 μg/ml NR-818, 10 μM ATP
T21 construct: purchased Upstate Biotechnology
Method: as §1, §2

T18 sequence (P06493 whole entry): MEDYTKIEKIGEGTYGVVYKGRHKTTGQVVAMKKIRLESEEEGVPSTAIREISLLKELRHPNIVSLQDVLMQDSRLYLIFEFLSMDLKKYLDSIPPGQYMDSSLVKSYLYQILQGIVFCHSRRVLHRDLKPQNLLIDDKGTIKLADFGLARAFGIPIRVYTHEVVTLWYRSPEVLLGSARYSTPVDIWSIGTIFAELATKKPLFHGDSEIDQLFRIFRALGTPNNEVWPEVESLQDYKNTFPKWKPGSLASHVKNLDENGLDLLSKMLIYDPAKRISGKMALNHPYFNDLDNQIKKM
T18 sequence (P14635 whole entry partner): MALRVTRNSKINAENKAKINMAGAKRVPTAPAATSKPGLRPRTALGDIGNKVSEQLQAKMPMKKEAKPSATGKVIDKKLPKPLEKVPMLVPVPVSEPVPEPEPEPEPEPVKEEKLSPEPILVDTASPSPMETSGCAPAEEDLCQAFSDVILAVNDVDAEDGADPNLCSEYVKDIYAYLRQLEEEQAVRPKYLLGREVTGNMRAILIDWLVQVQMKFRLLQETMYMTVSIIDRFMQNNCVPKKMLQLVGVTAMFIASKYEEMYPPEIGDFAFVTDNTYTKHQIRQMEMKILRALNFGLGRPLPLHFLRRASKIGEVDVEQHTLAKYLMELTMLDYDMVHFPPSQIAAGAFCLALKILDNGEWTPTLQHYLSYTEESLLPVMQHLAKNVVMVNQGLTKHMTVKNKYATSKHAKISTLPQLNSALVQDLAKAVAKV
T19 sequence (Q05513 whole entry): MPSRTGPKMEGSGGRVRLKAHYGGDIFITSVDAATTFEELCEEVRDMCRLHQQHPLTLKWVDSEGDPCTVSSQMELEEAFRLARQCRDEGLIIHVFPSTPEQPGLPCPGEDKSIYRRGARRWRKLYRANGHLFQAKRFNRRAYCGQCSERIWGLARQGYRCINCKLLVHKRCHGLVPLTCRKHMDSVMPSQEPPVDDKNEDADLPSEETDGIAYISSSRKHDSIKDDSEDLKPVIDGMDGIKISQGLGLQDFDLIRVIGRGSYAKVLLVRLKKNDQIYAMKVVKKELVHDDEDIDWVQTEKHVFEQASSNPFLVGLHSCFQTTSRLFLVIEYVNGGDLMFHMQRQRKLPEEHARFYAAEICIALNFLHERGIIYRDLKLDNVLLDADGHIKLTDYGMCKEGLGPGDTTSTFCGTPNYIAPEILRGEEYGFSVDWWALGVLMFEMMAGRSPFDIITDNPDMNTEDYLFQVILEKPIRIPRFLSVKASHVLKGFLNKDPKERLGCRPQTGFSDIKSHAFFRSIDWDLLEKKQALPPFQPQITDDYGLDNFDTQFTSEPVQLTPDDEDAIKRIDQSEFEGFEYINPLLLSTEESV
T8 sequence (P45983 1-384 isoform P45983-2): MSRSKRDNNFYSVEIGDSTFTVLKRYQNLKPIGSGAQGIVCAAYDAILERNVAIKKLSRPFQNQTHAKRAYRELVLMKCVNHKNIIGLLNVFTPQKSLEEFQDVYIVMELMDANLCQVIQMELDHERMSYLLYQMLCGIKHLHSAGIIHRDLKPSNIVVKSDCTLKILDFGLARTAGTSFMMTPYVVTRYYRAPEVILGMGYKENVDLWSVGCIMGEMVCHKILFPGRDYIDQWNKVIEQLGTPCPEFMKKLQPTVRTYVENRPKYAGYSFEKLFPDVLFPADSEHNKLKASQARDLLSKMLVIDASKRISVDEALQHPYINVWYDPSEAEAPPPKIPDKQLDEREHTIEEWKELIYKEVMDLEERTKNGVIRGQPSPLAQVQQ
T7 sequence (O00418 whole entry): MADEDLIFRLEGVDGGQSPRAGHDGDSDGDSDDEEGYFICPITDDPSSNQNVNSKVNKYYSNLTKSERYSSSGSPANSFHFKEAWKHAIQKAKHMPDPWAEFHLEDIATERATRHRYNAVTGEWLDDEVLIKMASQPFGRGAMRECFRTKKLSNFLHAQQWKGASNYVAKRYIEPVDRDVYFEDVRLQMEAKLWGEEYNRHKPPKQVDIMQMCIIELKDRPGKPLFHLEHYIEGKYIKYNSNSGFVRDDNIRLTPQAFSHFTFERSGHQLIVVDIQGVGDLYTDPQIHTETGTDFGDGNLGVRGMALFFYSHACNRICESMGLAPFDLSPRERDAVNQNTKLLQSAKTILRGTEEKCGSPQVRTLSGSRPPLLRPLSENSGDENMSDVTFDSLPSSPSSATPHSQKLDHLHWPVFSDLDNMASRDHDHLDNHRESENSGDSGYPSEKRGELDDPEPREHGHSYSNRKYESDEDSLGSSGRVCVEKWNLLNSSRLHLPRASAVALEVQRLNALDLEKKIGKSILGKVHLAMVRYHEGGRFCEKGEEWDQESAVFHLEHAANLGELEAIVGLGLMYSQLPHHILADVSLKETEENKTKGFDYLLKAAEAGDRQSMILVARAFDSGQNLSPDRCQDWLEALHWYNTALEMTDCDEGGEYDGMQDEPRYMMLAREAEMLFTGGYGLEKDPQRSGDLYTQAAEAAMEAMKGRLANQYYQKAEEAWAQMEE
T20 sequence (P49840 whole entry): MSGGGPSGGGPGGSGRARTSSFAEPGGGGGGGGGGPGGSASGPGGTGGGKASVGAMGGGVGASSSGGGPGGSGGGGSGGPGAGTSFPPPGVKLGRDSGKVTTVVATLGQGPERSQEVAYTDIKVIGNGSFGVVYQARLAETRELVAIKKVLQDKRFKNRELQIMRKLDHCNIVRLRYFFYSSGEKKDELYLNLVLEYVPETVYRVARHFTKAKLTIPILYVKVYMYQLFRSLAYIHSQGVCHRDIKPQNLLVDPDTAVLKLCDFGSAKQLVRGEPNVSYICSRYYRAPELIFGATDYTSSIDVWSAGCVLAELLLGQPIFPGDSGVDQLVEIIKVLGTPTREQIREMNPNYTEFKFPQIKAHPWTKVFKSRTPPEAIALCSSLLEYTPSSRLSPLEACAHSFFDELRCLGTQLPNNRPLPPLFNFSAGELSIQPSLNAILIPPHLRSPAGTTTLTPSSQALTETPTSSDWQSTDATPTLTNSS
T9 sequence (P28482 whole entry): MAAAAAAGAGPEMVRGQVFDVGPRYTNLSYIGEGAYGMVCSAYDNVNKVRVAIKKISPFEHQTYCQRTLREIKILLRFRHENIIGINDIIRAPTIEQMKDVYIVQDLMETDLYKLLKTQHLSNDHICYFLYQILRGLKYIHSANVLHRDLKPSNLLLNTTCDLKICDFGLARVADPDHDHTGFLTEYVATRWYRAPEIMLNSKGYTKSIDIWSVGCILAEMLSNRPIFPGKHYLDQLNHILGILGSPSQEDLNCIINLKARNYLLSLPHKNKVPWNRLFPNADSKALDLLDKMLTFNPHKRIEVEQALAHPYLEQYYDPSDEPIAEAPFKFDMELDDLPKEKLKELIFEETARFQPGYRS
T21 sequence (P49841 whole entry): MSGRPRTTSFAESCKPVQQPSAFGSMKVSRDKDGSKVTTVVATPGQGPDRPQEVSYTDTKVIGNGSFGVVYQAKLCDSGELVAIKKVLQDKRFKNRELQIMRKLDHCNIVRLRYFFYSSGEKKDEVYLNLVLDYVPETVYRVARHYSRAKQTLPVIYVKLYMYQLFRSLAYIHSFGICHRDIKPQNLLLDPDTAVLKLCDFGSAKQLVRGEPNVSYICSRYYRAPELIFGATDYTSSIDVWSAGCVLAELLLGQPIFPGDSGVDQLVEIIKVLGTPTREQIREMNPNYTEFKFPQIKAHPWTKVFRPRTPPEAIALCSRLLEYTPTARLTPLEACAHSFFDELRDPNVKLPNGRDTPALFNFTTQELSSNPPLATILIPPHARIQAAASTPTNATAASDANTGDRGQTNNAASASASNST
T17 sequence (P45984 whole entry): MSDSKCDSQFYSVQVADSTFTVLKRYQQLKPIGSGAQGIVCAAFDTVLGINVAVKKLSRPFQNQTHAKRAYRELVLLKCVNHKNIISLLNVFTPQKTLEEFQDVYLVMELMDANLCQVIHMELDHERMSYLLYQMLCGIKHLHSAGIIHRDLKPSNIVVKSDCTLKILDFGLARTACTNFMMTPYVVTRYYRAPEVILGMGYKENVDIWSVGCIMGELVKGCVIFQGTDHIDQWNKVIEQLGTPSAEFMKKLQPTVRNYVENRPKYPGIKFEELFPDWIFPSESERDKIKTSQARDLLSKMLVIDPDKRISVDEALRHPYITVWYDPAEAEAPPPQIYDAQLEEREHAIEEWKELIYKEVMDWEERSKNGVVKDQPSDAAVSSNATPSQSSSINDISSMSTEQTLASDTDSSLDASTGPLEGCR
T3 sequence (Q00534 whole entry): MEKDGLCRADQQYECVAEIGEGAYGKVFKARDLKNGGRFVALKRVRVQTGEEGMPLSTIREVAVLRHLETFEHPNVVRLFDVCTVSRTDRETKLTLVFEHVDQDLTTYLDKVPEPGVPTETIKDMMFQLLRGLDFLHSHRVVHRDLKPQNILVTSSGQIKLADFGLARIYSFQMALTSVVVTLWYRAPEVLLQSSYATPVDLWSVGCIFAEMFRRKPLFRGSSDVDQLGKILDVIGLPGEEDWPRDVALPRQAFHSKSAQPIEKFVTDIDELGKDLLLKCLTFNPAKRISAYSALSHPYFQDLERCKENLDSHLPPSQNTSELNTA
T3 sequence (P30281 whole entry partner): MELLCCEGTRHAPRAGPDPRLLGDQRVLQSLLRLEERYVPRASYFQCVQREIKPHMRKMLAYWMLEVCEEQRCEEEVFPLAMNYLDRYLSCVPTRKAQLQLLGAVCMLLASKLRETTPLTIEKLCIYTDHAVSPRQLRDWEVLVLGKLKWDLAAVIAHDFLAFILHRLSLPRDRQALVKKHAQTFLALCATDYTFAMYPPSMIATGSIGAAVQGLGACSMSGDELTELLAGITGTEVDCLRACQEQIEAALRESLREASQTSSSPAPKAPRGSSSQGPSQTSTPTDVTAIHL

With Cc1nc(S)n(Nc2cccc3ccccc23)c1-c1ccccc1 [HER/NR818, 4-Methyl-1-(naphthalen-1-ylamino)-5-phenyl-1,3-dihydro-imidazole-2-thione] the “PBMC cell count, NAIM combined with IL-2” value ([1]; IL-2 10 U/ml plus NAIM (NR818 2.5 μg/ml), stimulated and non stimulated cells, versus IL-2 only) was “enhanced”, the “PBMC cell viability, NAIM as such” value ([1]; NAIM alone, compared to control conditions) was “did not affect the cell viability” and the “basal hyperglycemia just prior to the glucose tolerance test” value ([2]; diabetic mice) was “significant reduction”. For the same compound, the “glucose disposal following glucose challenge” value ([2]; diabetic mice) was “significantly improved”, the “tissue penetrance in vivo” value ([2]; mice) was “high” and the “Activity (% of control)” value (CDK5/p25) was 98 % of control. The “Activity (% of control)” value (PI 3-kinaseβ) was 81 % of control, the “Activity (% of control)” value (CDK6/cyclinD3) was 112 % of control and the “Activity (% of control)” value (CDK5/p35) was 92 % of control. For the same compound, the “Activity (% of control)” value (MAPK1) was 104 % of control, the “Activity (% of control)” value (CK2) was 99 % of control and the “Activity (% of control)” value (eEF-2K) was 101 % of control. The “Activity (% of control)” value (JNK1α1) was 114 % of control, the “Activity (% of control)” value (MAPK2) was 105 % of control and the “Activity (% of control)” value (CK1) was 106 % of control. The “Activity (% of control)” value (PI 3-kinaseγ) was 96 % of control, the “Activity (% of control)” value (CDK7/cyclinH) was 100 % of control and the “Activity (% of control)” value (CDK2/cyclinA) was 87 % of control. For the same compound, the “Activity (% of control)” value (CDK9/cyclinT1) was 100 % of control, the “Activity (% of control)” value (CDK3/cyclinE) was 103 % of control and the “Activity (% of control)” value (PI 3-kinaseδ) was 89 % of control. The “Activity (% of control)” value (CDK2/cyclinE) was 101 % of control, the “Activity (% of control)” value (JNK2α2) was 100 % of control and the “Activity (% of control)” value (CDK1/cyclinB) was 88 % of control. For the same compound, the “Activity (% of control)” value (PKCζ) was 98 % of control, the “Activity (% of control)” value (GSK-3α) was 70 % of control and the “Activity (% of control)” value (GSK-3β) was 65 % of control.
